EP2975030B1, “DIHYDROPYRIDAZINE-3,5-DIONE DERIVATIVE” (Chugai Seiyaku Kabushiki Kaisha, priority 2013, dated 2014)

Test system: rat small-intestinal brush border membrane vesicles
Assay: Inhibitory effect on 33PO4 uptake into rat small-intestinal brush border membrane vesicles (rapid filtration method)
Format: biochemical, Wistar female rat
Conditions: 1 µM test compound; 33PO4 uptake into rat small-intestinal BBMVs, 60 seconds
How it was run: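 33PO4 uptake into rat small-intestinal brush border membrane vesicles measured by rapid filtration. Reactions were stopped with ice-cold buffer (110 mM NaCl, 1 mM KH2PO4, 10 mM HEPES pH 7.5), filtered and washed. Vesicle-associated radioactivity was counted by liquid scintillation.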

Row | Compound | Rate of uptake inhibition (%) (1 µM)
1 | Cc1nc(NC(=O)C2=C(O)[C@H](C(C)(C)C)N(C)N(Cc3cccc(F)c3F)C2=O)ccc1Br [Example 241] | 86%
2 | Cc1cccc(CN2C(=O)C(C(=O)Nc3ccc(C(F)(F)F)cc3-c3cc(C(F)(F)F)ncn3)=C(O)[C@@]3(C)CCCN23)c1 [Example 186] | 88%
3 | COc1cccc(-c2cc(C(F)(F)F)ccc2NC(=O)C2=C(O)[C@@]3(C)CCCN3N(Cc3ccc(OC4CCOCC4)c(F)c3F)C2=O)c1OC [Example 158] | 84%
4 | CC(C)[C@@H]1C(O)=C(C(=O)Nc2ccc(C(F)(F)F)cc2-c2cc(C(F)(F)F)ncn2)C(=O)N(Cc2cccc(F)c2F)N1C [Example 249] | 50%
5 | C[C@]12CCCN1N(Cc1ccc(F)c(Br)c1)C(=O)C(C(=O)Nc1ccc(C(F)(F)F)cc1-c1cc(C(F)(F)F)ncn1)=C2O [Example 184] | 79%
6 | C[C@]12CCCN1N(Cc1ccc(F)cc1)C(=O)C(C(=O)Nc1ccc(C(F)(F)F)cc1-c1ccc(C(F)(F)F)nc1)=C2O [Example 199] | 79%
7 | C[C@]12CCCN1N(Cc1c(F)cc(OCCCCCOC[C@@H](O)CO)cc1F)C(=O)C(C(=O)Nc1ccc(C(F)(F)F)cc1-c1ccc(C(F)(F)F)nc1)=C2O [Example 153] | 73%
8 | COCCN(C)CCN(C)c1ccc(CN2C(=O)C(C(=O)Nc3ccc(C(F)(F)F)cc3-c3cc(C(F)(F)F)ncn3)=C(O)C3(CCCC3)N2C)c(F)c1F [Example 442] | 24%
9 | COc1cccc(-c2cc(C(F)(F)F)ccc2NC(=O)C2=C(O)[C@@]3(C)CCCN3N(Cc3ccc(CCCOCCOCCOCCO)c(F)c3F)C2=O)c1OC [Example 142] | 76%
10 | C[C@]12CCCN1N(Cc1c(F)cc(C#CCCOC[C@H](O)CO)cc1F)C(=O)C(C(=O)Nc1ccc(C(F)(F)F)cc1-c1ccc(C(F)(F)F)nc1)=C2O [Example 145] | 78%
11 | CN(CCOCCC(=O)NCC(O)CO)CCOc1ccc(CN2C(=O)C(C(=O)Nc3ccc(C(F)(F)F)cc3-c3cc(C(F)(F)F)ncn3)=C(O)C3(CCCC3)N2C)c(F)c1F (centres unmarked) [Example 426] | 24%
12 | CN1N(Cc2ccc(OC3COC3)c(F)c2F)C(=O)C(C(=O)Nc2ccc(C(F)(F)F)cc2-c2cc(C(F)(F)F)ncn2)=C(O)C12CCC2 [Example 403, 6-(2,3-Difluoro-4-(oxetan-3-yloxy)benzyl)-9-hydroxy-5-methyl-7-oxo-N-(4-(trifluoromethyl)-2-(6-(trifluoromethyl)pyrimidin-4-yl)phenyl)-5,6-diazaspiro[3.5]non-8-ene-8-carboxamide] | 71%
13 | Cc1c(C#N)ncnc1-c1cc(C(F)(F)F)ccc1NC(=O)C1=C(O)[C@@]2(C)CCCN2N(Cc2cccc(F)c2F)C1=O [Example 24] | 76%
14 | CN1N(Cc2ccc(OCCN3CCOC(=O)C3)c(F)c2F)C(=O)C(C(=O)Nc2ccc(C(F)(F)F)cc2-c2cc(C(F)(F)F)ncn2)=C(O)C12CCC2 [Example 337, 8-[[2,3-Difluoro-4-[2-(2-oxomorpholin-4-yl)ethoxy]phenyl]methyl]1-5-hydroxy-9-methyl-7-oxo-N-[4-(trifluoromethyl)-2[6-(trifluoromethyl)pyrimidin-4-yl]phenyl]-8,9-diazaspiro[3.5]non-5-ene-6-carboxamide] | 47%
15 | Cc1cc(NC(=O)C2=C(O)[C@@]3(C)CCCN3N(Cc3cccc(F)c3F)C2=O)c(C(F)(F)F)o1 [Example 7] | 69%
16 | C[C@]12CCCN1N(Cc1cccc(Cl)c1)C(=O)C(C(=O)Nc1ccc(C(F)(F)F)cc1-c1cc(C(F)(F)F)ncn1)=C2O [Example 181] | 85%
17 | CN1N(Cc2ccc(OCCCCCOC[C@H](O)CO)c(F)c2F)C(=O)C(C(=O)Nc2ccc(C(F)(F)F)cc2-c2ccc(C(F)(F)F)nc2)=C(O)C12CCC2 [Example 385] | 39%
18 | CN1N(Cc2cccc(F)c2F)C(=O)C(C(=O)Nc2cc(C(F)(F)F)ccc2-c2ccc(C(F)(F)F)nc2)=C(O)C1(C)C [Example 307] | 41%
19 | COc1ncc(-c2cc(C(F)(F)F)ccc2NC(=O)C2=C(O)[C@@]3(C)CCCN3N(Cc3cccc(F)c3F)C2=O)c(OC)n1 [Example 72] | 92%
20 | COC(=O)CN(C)CCOc1ccc(CN2C(=O)C(C(=O)Nc3ccc(C(F)(F)F)cc3-c3cc(C(F)(F)F)ncn3)=C(O)C3(CCC3)N2C)c(F)c1F [Example 346] | 42%
21 | CCC1(CC)C(O)=C(C(=O)Nc2ccc(C(F)(F)F)cc2-c2cc(C(F)(F)F)ncn2)C(=O)N(Cc2ccc(OCCN3CCOCC3)c(F)c2F)N1C [Example 291] | 47%

Row | Compound | Rate of uptake inhibition (%) (1 µM)
22 | C[C@]12CCCN1N(Cc1cccc(Cl)c1F)C(=O)C(C(=O)Nc1ccc(C(F)(F)F)cc1-c1ccc(C(F)(F)F)nc1)=C2O [Example 198] | 75%
23 | C[C@@]12CCCN1N(Cc1ccc(OCCN3CCOCC3)c(F)c1F)C(=O)C(C(=O)Nc1ccc(C(F)(F)F)cc1-c1cc(C(F)(F)F)ncn1)=C2O.Cl [Example 108] | 54%
24 | C[C@]12CCCN1N(Cc1cccc(F)c1F)C(=O)C(C(=O)Nc1ccc(Br)c(F)c1)=C2O [Example 28] | 72%
25 | COc1cccc(-c2cc(C(F)(F)F)ccc2NC(=O)C2=C(O)[C@@]3(C)CCCN3N(Cc3ccc(C#CCOCCOCCOCCO)c(F)c3F)C2=O)c1OC [Example 136] | 80%
26 | C[C@]12CCCN1N(Cc1ccccc1Cl)C(=O)C(C(=O)Nc1cc(F)c(Br)c(F)c1)=C2O [Example 219] | 95%
27 | CC(C)(C)[C@H]1C(O)=C(C(=O)Nc2ccc(Cl)cc2-c2ccc(C(F)(F)F)nc2)C(=O)N(Cc2cccc(F)c2F)N1CC(F)(F)F [Example 247] | 51%
28 | CN1[C@@H](C(C)(C)C)C(O)=C(C(=O)Nc2ccc(Cl)cc2-c2cc(C#N)ncn2)C(=O)N1Cc1ccc(OCCN2CCOCC2)c(F)c1F [Example 272] | 43%
29 | CC(C)[C@H]1C(O)=C(C(=O)Nc2ccc(C(F)(F)F)cc2-c2cc(C(F)(F)F)ncn2)C(=O)N(Cc2cccc(F)c2F)N1C [Example 252] | 53%
30 | CC(C)(C)[C@H]1C(O)=C(C(=O)Nc2cc(F)c(Br)c(F)c2)C(=O)N(Cc2cccc(F)c2F)N1CC(F)(F)F [Example 248] | 45%
31 | CN(C)S(=O)(=O)c1ccc(-c2cc(C(F)(F)F)ccc2NC(=O)C2=C(O)[C@@]3(C)CCCN3N(Cc3cccc(F)c3F)C2=O)s1 [Example 71] | 97%
32 | Cc1ncc(-c2cc(C(F)(F)F)ccc2NC(=O)C2=C(O)[C@@]3(C)CCCN3N(Cc3cccc(F)c3F)C2=O)cc1C#N [Example 109, (4aR)-N-[2-(5-Cyano-6-methylpyridin-3-yl)-4-(trifluoromethyl)phenyl]-1-[(2,3-difluorophenyl)methyl]-4-hydroxy-4a-methyl-2-oxo-6,7-dihydro-5H-pyrrolo[1,2-b]pyridazine-3-carboxamide] | 52%
33 | C[C@]12CCCN1N(Cc1ccc(SCCN3CCOCC3)c(F)c1F)C(=O)C(C(=O)Nc1ccc(C(F)(F)F)cc1-c1ccc(C(F)(F)F)nc1)=C2O.Cl [Example 163, (4aR)-1-[[2,3-Difluoro-4-(2-morpholin-4-ylethylsulfanyl)phenyl]methyl]-4-hydroxy-4a-methyl-2-oxo-N-(4-(trifluoromethyl)-2-[6-(trifluoromethyl)pyridin-3-yl]phenyl)-6,7-dihydro-5H-pyrrolo[1,2-b]pyridazine-3-carboxamide hydrochloride] | 79%
34 | C[C@]12CCCN1N(Cc1cccc(F)c1F)C(=O)C(C(=O)Nc1cc(F)c(Br)c(F)c1)=C2O [Example 29] | 75%
35 | C[C@]12CCCN1N(Cc1ccc(F)cc1)C(=O)C(C(=O)Nc1ccc(C(F)(F)F)cc1-c1cc(C(F)(F)F)ncn1)=C2O [Example 208] | 90%
36 | CN1N(Cc2ccc(OCCN3[C@@H]4COC[C@H]3C4)c(F)c2F)C(=O)C(C(=O)Nc2ccc(C(F)(F)F)cc2-c2cc(C(F)(F)F)ncn2)=C(O)C12CCC2 [Example 339] | 66%
37 | C[C@]12CCCN1N(Cc1cccc(OC(F)(F)F)c1)C(=O)C(C(=O)Nc1ccc(C(F)(F)F)cc1-c1cc(C(F)(F)F)ncn1)=C2O [Example 189] | 73%
38 | COc1cccc(-c2cc(C(F)(F)F)ccc2NC(=O)C2=C(O)[C@@]3(C)CCCN3N(Cc3ccc(C#CCOCCCO)c(F)c3F)C2=O)c1OC [Example 127] | 95%
39 | C[C@]12CCCN1N(Cc1c(F)cc(C#CCN3CCOCC3)cc1F)C(=O)C(C(=O)Nc1ccc(C(F)(F)F)cc1-c1ccc(C(F)(F)F)nc1)=C2O [Example 132] | 71%
40 | C[C@]12CCCN1N(Cc1ccc(OCCN3CCOCC3)c(Cl)c1)C(=O)C(C(=O)Nc1ccc(C(F)(F)F)cc1-c1ccc(C(F)(F)F)nc1)=C2O [Example 149, (4aR)-1-[[3-Chloro-4-(2-morpholin-4-ylethoxy)phenyl]methyl]-4-hydroxy-4a-methyl-2-oxo-N-[4-(trifluoromethyl)-2-[6-(trifluoromethyl)pyridin-3-yl]phenyl]-6,7-dihydro-5H-pyrrolo[1,2-b]pyridazine-3-carboxamide] | 80%
41 | CC(C)[C@@H]1C(O)=C(C(=O)Nc2ccc(Cl)cc2-c2ccc(C(F)(F)F)nc2)C(=O)N(Cc2cccc(F)c2F)N1C [Example 251] | 43%
